Measurements taken from the NIST ThermoML archive (doi:10.1016/j.jct.2018.12.002).
Numbers after ± are expanded uncertainties.

Test: molar heat capacity at constant pressure
Settings: 1943 K; 101.33 kPa; Liquid; Levitation methods

Structure (SMILES): [Ti] [titanium]
- molar heat capacity at constant pressure: 44.9 ± 4.3 J/K/mol
